Measured values: patent US8598147B2, “Synergistic antimicrobial composition” (Dow Global Technologies LLC, priority 2009, dated 2013)

Experiments:
[1] = test system: oil field isolated anaerobic consortium, mainly SRB; experiment: Biocidal efficacy (MBC, complete bacteria kill) of THPS, CTAC and THPS/CTAC combination against sulfate reducing bacteria; assay type: cell-based, sulfate reducing bacteria (SRB)
Protocol: Inside an anaerobic chamber (BACTRON anaerobic chamber), a deaerated sterile salt solution (3.1183 g of NaCl, 1.3082 mg of NaHCO3, 47.70 mg of KCl, 72.00 mg of CaCl2, 54.49 mg of MgSO4, 172.28 mg of Na2SO4, 43.92 mg of Na2CO3 in 1 L water) was contaminated with an oil field isolated anaerobic consortium, mainly SRB, at final bacterial concentrations of 10^6 to 10^7 CFU/mL.

[2] = test system: oilfield SRB consortium; experiment: Biocidal efficacy against anaerobic bacteria for a high temperature and sulfide-rich environment (dosage for 99.999% bacterial reduction); assay type: cell-based, sulfate reducing bacteria (SRB); settings: 80° C., 7 days, daily challenge of SRB consortium and 10 ppm sulfide ion
Protocol: Inside an anaerobic chamber (BACTRON IV), biocides solutions were challenged with 10^4 to 10^5CFU/mL of an oilfield SRB consortium and 10 ppm sulfide ion (added in the form of sodium sulfide). The biocide solutions were then incubated at 80° C. under anaerobic condition for 7 days, with daily challenge of the SRB consortium (10^4 to 10^5CFU/mL) and sulfide ion (10 ppm). Then the biocidal efficacy was evaluated against the field SRB consortium at 2 hours and 7 days. The biocidal efficacy was determined by the biocide dosage required for 99.999% bacterial reduction. Synergy Index was then calculated. Table 2 summarizes the efficacy of each biocide and their blends, and the Synergy Index of each combination.

Row | Compound | MBC (active ppm) CTAC ([1]; CTAC concentration (alone or within the blend) for complete bacteria kill, 40° C., 24 hour, anaerobic, 10^6 to 10^7 CFU/mL) [active ppm] | Concentration (active ppm) required for 99.999% bacterial reduction CTAC ([2]; CTAC concentration (alone or within the blend)) [active ppm] | MBC (active ppm) THPS [1] [active ppm] | Concentration (active ppm) required for 99.999% bacterial reduction THPS ([2]; THPS concentration (alone or within the blend)) [active ppm]
1 | Cl/C=C\C[N+]12CN3CN(CN(C3)C1)C2.[Cl-] [CTAC, cis-1-(3-chloroallyl)-3,5,7-triaza-1-azoniaadamantane chloride] | 31.1 | 180 | – | –
2 | tetrakis(hydroxymethyl)phosphonium sulfate [THPS] | – | – | 4.1 | 45.0
